Source: patent US20240358684A1, “METHOD FOR ENHANCING INNATE IMMUNE RESPONSE” (Kyoto University, priority 2021, published 2024)
Several values for one entry are separate records, joined by “and”; a condition that tells them apart may be missing. Identical values can stand only once.

Tests used:
[1] = tested on: RNase L pathway (rRNA degradation)
[2] = tested on: OAS1 exon 5 splice donor (SD) sequence; experiment: RNA pull-down assay with OAS1 exon 5 splice donor RNA and western blot; format: binding, human; settings: Calu-3 cell lysate, 10 μM
Experimental: Calu-3 whole cell lysates were prepared using a lysis buffer containing 10 mM Tris-HCl (pH 7.4), 150 mM NaCl, 1 mM ethylenediaminetetraacetic acid, 1% Triton X-100, 0.1% sodium dodecyl sulphate, 0.25% sodium deoxycholate, and 10% glycerol with protease inhibitors (Nacalai Tesque) and phosphatase inhibitors (Sigma-Aldrich, Munich, Germany), followed by sonication, treatment with DNase I (Promega. Madison, WI, USA) at 37° C. for 5 min, and centrifugation (24,000×g at 4° C. for 15 min). The supernatant was used as the soluble fraction for the RNA-pull down assay. […] This was followed by washing the resultant thrice with tris-buffered saline and elution with Laemmli buffer. Three technical replicates for RNA pull-down assay were independently conducted, three times from a stocked cell lysate. […] Chemiluminescent signals were detected using a ChemiDoc MP Imaging System (Bio-Rad, Hercules, CA, USA).

[3] = tested on: SARS-CoV-2; format: cell-based
[4] = target: T1, CLK3 (Homo sapiens, UniProt P49761); experiment: Inhibition confirmation test for CLK (off-chip mobility shift assay); format: biochemical; settings: ATP 75 μM; read-out: CLK3 inhibitory activity (IC50 value)
T1 construct: Enzyme activity was measured with off-chip mobility shift assay using purified CLK protein
Experimental: (§1) Enzyme activity was measured with off-chip mobility shift assay using purified CLK protein. DYRKtide-F peptide (1 μM) was used as a substrate, and a composition of a reaction solution used was as follows (20 mM HEPES (pH7.5), 0.01% Triton X-100, 1 mM DT7, 1% DMSO, and ATP (10 μM for CLK1, 150 μM for CLK2, and 75 μM for CLK3)). The enzyme reaction was performed at room temperature for 1 hour, and the reaction was terminated by adding QuickScout Screening Assist MSA (Carna Biosciences, Inc.). A substrate peptide and a phosphorylated peptide in the enzyme reaction solution were separated and quantified using the LabChip system (Perkin-Elmer, Waltham, MA, USA), and inhibition of CLK was evaluated by calculating a product ratio using the following formula, the substrate peptide peak height (S), and the phosphorylated peptide peak height (P).
(§2) (P/(P+S)) • P: product-derived peak • S: substrate-derived peak

[5] = target: T2, CLK2 (Homo sapiens, UniProt P49760); experiment: as above; format: biochemical; settings: ATP 150 μM; read-out: CLK2 inhibitory activity (IC50 value)
T2 construct: Enzyme activity was measured with off-chip mobility shift assay using purified CLK protein
Experimental: as §1, §2

[6] = tested on: IFNB1; format: cell-based, human
[7] = tested on: Calu-3 cells; experiment: Transcriptome analysis (RNA-Seq, differential expression and differential alternative splicing) of compound 1-treated Calu-3 cells; format: cell-based, human; settings: 18 h; for delta PSI: 10 μM
Experimental: Transcriptome analysis for compound 1-treated Calu-3 cells RNAs were extracted using RNeasy Mini kit (QIAGEN, Hilden, Germany) from Calu-3 cells, treated with 10 μM compound 1 or 0.1% DMSO for 18 h, and applied for RNA-Seq analysis. Three technical replicates for RNA-Seq, where each experiment was independently conducted three times from a stocked total RNA. RNA-seq reads were mapped to the human genome sequences (GRCh38) using STAR (ver. 2.7.1a, https://github.com/alexdobin/STAR) with ENCODE options, using the Ensembl genome annotation (ver. 102). Raw reads were counted with bam files, and TPM values were calculated using RSEM v1.2.31 (https://github.com/deweylab/RSEM). Differentially expressed genes were identified using the method described above. Differential alternative splicing (DAS) events were analyzed with the method previously described (Sakuma et al., 2015) using the rMATS program (http://rnaseq-mats.sourceforge.net/rmats4.1.1/). DAS was defined by the following criteria: FDR<0.01, read counts≥15, and delta Percent Spliced-In (PSI)≥0.05. The DAS events were compared with the gene annotation information, the event types were then classified into events on the exons constituting the productive mRNAs, events on additional exons/regions of the productive mRNAs, and others. For characterizing gene set and transcriptome profiles, the Metascape website (https://imetascape.org/) and Gene Set Enrichment Analysis (GSEA, https://ww.gsea-maigdb.org/gsea/) were used. The same samples were also used for RT-PCR.

T1 sequence (P49761 whole entry): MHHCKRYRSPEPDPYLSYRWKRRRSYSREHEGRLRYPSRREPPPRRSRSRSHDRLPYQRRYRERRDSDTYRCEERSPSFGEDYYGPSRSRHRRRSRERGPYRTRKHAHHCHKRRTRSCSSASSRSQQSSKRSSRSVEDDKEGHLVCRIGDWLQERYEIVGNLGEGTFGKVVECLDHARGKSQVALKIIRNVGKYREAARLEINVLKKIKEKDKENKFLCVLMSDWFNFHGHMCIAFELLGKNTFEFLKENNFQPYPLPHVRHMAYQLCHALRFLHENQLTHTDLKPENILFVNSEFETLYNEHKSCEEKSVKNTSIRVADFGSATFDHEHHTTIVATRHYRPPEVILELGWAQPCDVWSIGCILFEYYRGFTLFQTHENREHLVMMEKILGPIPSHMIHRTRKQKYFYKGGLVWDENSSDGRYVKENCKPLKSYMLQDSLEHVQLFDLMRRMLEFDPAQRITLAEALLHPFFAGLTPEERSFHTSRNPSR
T2 sequence (P49760 whole entry): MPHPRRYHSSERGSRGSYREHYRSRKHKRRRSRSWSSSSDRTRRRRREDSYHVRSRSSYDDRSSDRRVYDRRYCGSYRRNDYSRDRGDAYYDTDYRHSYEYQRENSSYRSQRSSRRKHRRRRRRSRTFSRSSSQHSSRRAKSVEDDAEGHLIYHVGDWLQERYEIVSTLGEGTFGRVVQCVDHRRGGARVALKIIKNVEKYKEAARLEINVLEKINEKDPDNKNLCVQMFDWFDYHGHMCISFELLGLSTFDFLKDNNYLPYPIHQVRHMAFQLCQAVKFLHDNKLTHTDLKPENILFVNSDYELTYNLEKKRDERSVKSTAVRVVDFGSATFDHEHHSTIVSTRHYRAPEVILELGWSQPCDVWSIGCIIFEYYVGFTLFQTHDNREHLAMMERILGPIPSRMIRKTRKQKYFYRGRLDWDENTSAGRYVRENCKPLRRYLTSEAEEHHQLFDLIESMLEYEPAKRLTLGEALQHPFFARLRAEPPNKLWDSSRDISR

N=C1NC(=O)/C(=C/c2ccc3c(c2)CCO3)S1 [compound 1]
28S rRNA peak fold change [1]: 0.56
concentration of decomposition products, sized 2,000-3,000 nucleotides, fold change [1]: 1.35
U1snRNP (U1-70k) binding to OAS1 exon 5 donor site [2]: enhanced
phosphorylated SRSF6 in OAS1 SD pull-down products [2]: not detected
viral titer fold change [3]: 0.56
log10 (TCID50/ml) Batch-effect corrected ([3]; 10 μM, 2nd batch replicates, listed as Compund 1): 7.6 and 7.44 and 7.41
log10 (TCID50/ml) ([3]; 10 μM, raw, single replicates of 1st and 2nd batch, listed as Compund 1): 7.5 (2×) and 7.25 and 6.75 and 6.5 and 6.45
viral titer ([3]; Calu-3 pre-treated 24 h with 10 μM, MOI 0.01, 48 hours pi, DMSO control 5.18×10^7): 2.90×10^7
IC50 [4]: 116 nM
IC50 [5]: 68.3 nM
transcription of IFNB1 during viral infection [6]: increases
delta PSI ([7]; AAMP Intron between E5-E7 RI): −0.307
delta PSI ([7]; AC107871.1 E2-E3 SE additional exon): −0.333
delta PSI ([7]; AL117339.4 E2 SE): 0.318
delta PSI ([7]; AL136531.2 E2-E3 SE additional exon): −0.418
delta PSI ([7]; AL163636.1 E2 SE): 0.331
delta PSI ([7]; APOL1 E3 A3SS): −0.448
delta PSI ([7]; CABYR E4 A5SS): 0.309
delta PSI ([7]; CDK5RAP2 E32 SE): 0.313
delta PSI ([7]; CENPE E17 SE): 0.422
delta PSI ([7]; CFAP298 Intron between E5-E7 RI): −0.451
delta PSI ([7]; CLK1 E4 SE): 0.331
delta PSI ([7]; CLK4 E4 SE): 0.37
delta PSI ([7]; CLK4 Intron between E3-E4 RI): −0.346
delta PSI ([7]; CLK4 Intron between E4-E5 RI): −0.401
delta PSI ([7]; CYLD E2-E3 SE additional exon): −0.307
differential expression, number of genes ([7]; Calu-3, 10 μM): 98 genes
splice alterations yielding protein-coding variants, number of genes ([7]; Calu-3, 10 μM): 63 genes
delta PSI ([7]; DCUN1D2 E4-E5 SE additional exon): −0.438
delta PSI ([7]; DMD E71 SE): 0.365
delta PSI ([7]; DNHD1 Intron between E42-E43 RI): −0.31
delta PSI ([7]; DNM1 E14 SE): 0.342
delta PSI ([7]; DYNC1LI1 Intron between E8-E10 RI): −0.778
delta PSI ([7]; EPB41 E16-E17 SE additional exon): −0.301
delta PSI ([7]; FAAP100 E2 A5SS): −0.318
delta PSI ([7]; GALT Intron between E2-E6 RI): −0.374
delta PSI ([7]; GK E9 SE): 0.322
delta PSI ([7]; HAT1 Intron between E6-E8 RI): −0.584
delta PSI ([7]; HERC3 E17 SE): 0.309
delta PSI ([7]; HERC4 E17 SE): 0.38
delta PSI ([7]; IMPDH2 Intron between E3-E5 RI): −0.376
delta PSI ([7]; KANSL3 E3 A3SS): −0.309
delta PSI ([7]; KTN1 E41 SE): 0.304
delta PSI ([7]; LIMCH1 E9 SE): 0.42
delta PSI ([7]; LRP8 E5 SE): 0.392
delta PSI ([7]; LRRC6 E5 SE): 0.391
delta PSI ([7]; LRRC75B E1-E2 SE additional exon): −0.338
delta PSI ([7]; MAP3K7 E12 SE): 0.404
delta PSI ([7]; MCTP1 E8 SE): 0.367
delta PSI ([7]; METTL26 E2 SE): 0.3
delta PSI ([7]; MON2 E28 SE): 0.345
delta PSI ([7]; MPP3 E11 SE): 0.32
delta PSI ([7]; MSL3 Intron between E4-E6 RI): −0.485
delta PSI ([7]; MYO6 E34 SE): 0.405
delta PSI ([7]; MYOM1 E18 SE): 0.344
delta PSI ([7]; NAV2 E28 SE): 0.437
delta PSI ([7]; NEK1 E17 SE): 0.367
delta PSI ([7]; NGDN Intron between E4-E7 RI): −0.302
delta PSI ([7]; OBSL1 E12 SE): 0.369
delta PSI ([7]; PCGF3 E3-E4 SE additional exon): −0.318
delta PSI ([7]; PDE9A E5 SE): 0.378
delta PSI ([7]; PI4KB E2 SE): 0.421
delta PSI ([7]; PNKP Intron between E14-E16 RI): −0.3
delta PSI ([7]; PPM1K E2 SE): 0.317
delta PSI ([7]; RBPMS E8 SE): 0.301
delta PSI ([7]; RPGR E14 SE): 0.448
delta PSI ([7]; RPL3 Intron between E7-E9 RI): −0.381
delta PSI ([7]; RPL13A Intron between E2-E4 RI): −0.654
delta PSI ([7]; RTN4 E3 SE): 0.361
delta PSI ([7]; SAMD9L Partial Intron on E3 RI): 0.364
delta PSI ([7]; SLC25A29 E2-E3 SE additional exon): −0.314
delta PSI ([7]; SMARCA1 E13 SE): 0.367
delta PSI ([7]; SNX14 E16 SE): 0.336
delta PSI ([7]; SPATA20 E1-E2 SE additional exon): −0.319
delta PSI ([7]; TRIM2 E2 SE): 0.372
delta PSI ([7]; TRMU Intron between E9-E11 RI): −0.333
delta PSI ([7]; WNK1 E11 SE): 0.517
delta PSI ([7]; ZNF519 E3 A3SS): 0.316
